Legend:
[1] = target: T1, human MDM2 protein (amino acids 2-188) (Homo sapiens, UniProt Q00987); assay: p53-MDM2 TR-FRET assay (p53-MDM2 Assay 1); assay type: binding; details: 1.25 nM MDM2-biotinylated, 10 nM Cy5-p53 peptide; read-out: IC50 (μM) of p53-Hdm2 inhibition (TR-FRET) Assay 1
T1 construct: human MDM2 protein (amino acids 2-188); made in house
Experimental: (§1) Time Resolved Fluorescence Energy Transfer (TR-FRET) Assay
(§2) The inhibition of p53-MDM2 and p53-MDM4 interactions is measured by time resolved fluorescence energy transfer (TR-FRET). Fluorescence energy transfer (or Foerster resonance energy transfer) describes an energy transfer between donor and acceptor fluorescent molecules. For this assay, human MDM2 protein (amino acids 2-188) and human MDM4 protein (amino acids 2-185), tagged with a C-terminal biotin moiety, are used in combination with a Europium labeled streptavidin (Perkin Elmer, Inc., Waltham, Mass., USA) serving as the donor fluorophore. The p53 derived, Cy5 labeled peptide Cy5-TFSDLWKLL (p53 aa18-26) is the energy acceptor. Upon excitation of the donor molecule at 340 nm, binding interaction between MDM2 or MDM4 and the p53 peptide induces energy transfer and enhanced response at the acceptor emission wavelength at 665 nm. Disruption of the formation of the p53-MDM2 or p53-MDM4 complex due to an inhibitor molecule binding to the p53 binding site of MDM2 or MDM4 results in increased donor emission at 620 nm. The ratiometric FRET assay readout is calculated from the raw data of the two distinct fluorescence signals measured in time resolved mode (fluorescence 665 nm/fluorescence 620 nm×1000).
(§3) After addition of 1.25 nM MDM2-biotinylated or 2.5 nM MDM4-biotinylated (internal preparations), and 0.625 nM Europium labeled streptavidin (Perkin Elmer), the solution is pre-incubated for 15 minutes at room temperature, then 10 nM Cy5-p53 peptide (internal preparation) is added before an incubation at room temperature for 15 minutes prior to reading the plate. For measurement of samples, a Victor II microplate reader (Perkin Elmer) is used with the following settings: Excitation 340 nm, Emission Donor 620 nm and Emission Acceptor 665 nm. IC50 values are calculated by curve fitting using XLfit. If not specified, reagents are purchased from Sigma-Aldrich Chemie GmBH, Buchs, Switzerland.
(§4) This assay was used to evaluate compounds displaying inhibition of p53-MDM2 interaction and p53-MDM4 interaction at IC50s of 0.005 to 50 μM (p53-MDM2 Assay 1 and p53-MDM4 Assay 1, respectively). For selected compounds displaying IC50s between […] on MDM2, a slightly modified assay is used with the following adaptations: 0.1 nM MDM2, 0.1 nM Europium labeled streptavidin and Tecan genios Pro is used as a microplate reader for the fluorescence measurements (p53-MDM2 Assay 2).

[2] = target: T2, human MDM4 protein (amino acids 2-185) (Homo sapiens, UniProt O15151); assay: p53-MDM4 TR-FRET assay (p53-MDM4 Assay 1); assay type: binding; details: 2.5 nM MDM4-biotinylated, 10 nM Cy5-p53 peptide; read-out: IC50 (μM) of p53-Hdm4 inhibition (TR-FRET) Assay 1
T2 construct: human MDM4 protein (amino acids 2-185); made in house
T2 sequence (O15151 2-185): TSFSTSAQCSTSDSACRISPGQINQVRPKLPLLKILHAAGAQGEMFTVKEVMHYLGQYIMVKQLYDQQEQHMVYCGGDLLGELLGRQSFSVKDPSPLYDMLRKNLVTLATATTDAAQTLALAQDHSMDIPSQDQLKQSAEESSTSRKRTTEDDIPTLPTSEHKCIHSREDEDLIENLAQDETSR
Experimental: as §1, §2, §3, §4

T1 sequence (Q00987 2-188): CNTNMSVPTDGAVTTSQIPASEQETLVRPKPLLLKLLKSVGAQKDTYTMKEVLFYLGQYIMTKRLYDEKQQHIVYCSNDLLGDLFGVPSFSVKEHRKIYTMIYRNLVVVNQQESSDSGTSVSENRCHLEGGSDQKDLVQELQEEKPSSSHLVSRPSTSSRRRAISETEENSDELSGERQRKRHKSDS

Compound | IC50 [1] | IC50 [2]
COc1cc2c(cc1OC(C)C)[C@H](c1ccc(Cl)cc1)N(c1ccc(C(C)(O)c3ccc(NC(C)=O)cc3)cc1)C(=O)C2 (mixture of isomers) [Example 21, N-[4-(1-{4-[(S)-1-(4-Chloro-phenyl)-7-isopropoxy-6-methoxy-3-oxo-3,4-dihydro-1H-isoquinolin-2-yl]-phenyl}-1-hydroxy-ethyl)-phenyl]-acetamide] | 0.0071 µM | 10.4 µM
COc1cc2c(cc1OC(C)C)[C@H](c1ccc(Cl)cc1)N(c1ccc(C(C)(O)C3CCOCC3)cc1)C(=O)C2 (mixture of isomers) [Example 30, (S)-1-(4-Chloro-phenyl)-2-{4-[1-hydroxy-1-(tetrahydro-pyran-4-yl)-ethyl]-phenyl}-7-isopropoxy-6-methoxy-1,4-dihydro-2H-isoquinolin-3-one] | 0.0037 µM | 4.06 µM
COc1cc2c(cc1OC(C)C)[C@H](c1ccc(Cl)cc1)N(c1ccc(C(C)(O)C3CCN(C)CC3)cc1)C(=O)C2 (mixture of isomers) [Example 34, (S)-1-(4-Chloro-phenyl)-2-{4-[1-hydroxy-1-(1-methyl-piperidin-4-yl)-ethyl]-phenyl}-7-isopropoxy-6-methoxy-1,4-dihydro-2H-isoquinolin-3-one] | 0.0051 µM | 5.23 µM
COc1cc2c(cc1OC(C)C)[C@H](c1ccc(Cl)cc1)N(c1ccc(C(C)(O)C3CCOCC3)c(F)c1)C(=O)C2 (mixture of isomers) [Example 35, (S)-1-(4-Chloro-phenyl)-2-{3-fluoro-4-[1-hydroxy-1-(tetrahydro-pyran-4-yl)-ethyl]-phenyl}-7-isopropoxy-6-methoxy-1,4-dihydro-2H-isoquinolin-3-one] | 0.0025 µM | 1.48 µM
COc1cc2c(cc1OC(C)C)[C@H](c1ccc(Cl)cc1)N(c1ccc([C@@](C)(O)C3CCOCC3)cc1)C(=O)C2 (single isomer, unassigned) [Example 32] | 0.0023 µM | 2.19 µM
COc1cc2c(cc1OC(C)C)[C@H](c1ccc(Cl)cc1)N(c1ccc([C@](C)(O)C3CCOCC3)cc1)C(=O)C2 (single isomer, unassigned) [Example 33] | 0.216 µM | 67.8 µM
CCC(C)(O)c1ccc(N2C(=O)Cc3cc(OC)c(OC(C)C)cc3[C@@H]2c2ccc(Cl)cc2)cn1 (stereo partly drawn) [Example 9, (S)-1-(4-Chloro-phenyl)-2-[6-(1-hydroxy-1-methyl-propyl)-pyridin-3-yl]-7-isopropoxy-6-methoxy-1,4-dihydro-2H-isoquinolin-3-one] | 0.459 µM | –
CCC(C)(O)c1ccc(N2C(=O)Cc3cc(OC)c(OC(C)C)cc3[C@@H]2c2ccc(Cl)cc2)nc1 (stereo partly drawn) [Example 10, (S)-1-(4-Chloro-phenyl)-2-[5-(1-hydroxy-1-methyl-propyl)-pyridin-2-yl]-7-isopropoxy-6-methoxy-1,4-dihydro-2H-isoquinolin-3-one] | 0.247 µM | –
COc1cc2c(cc1OC(C)C)[C@H](c1ccc(Cl)cc1)N(c1ccc(C(C)(O)c3cccnc3)cc1F)C(=O)C2 (stereo partly drawn) [Example 20, (S)-1-(4-Chloro-phenyl)-2-[2-fluoro-4-(1-hydroxy-1-pyridin-3-yl-ethyl)-phenyl]-7-isopropoxy-6-methoxy-1,4-dihydro-2H-isoquinolin-3-one] | 0.0723 µM | –
COc1cc2c(cc1OC(C)C)[C@H](c1ccc(Cl)cc1)N(c1ccc(C(C)(O)CCO)cc1)C(=O)C2 (stereo partly drawn) [Example 41, (S)-1-(4-Chloro-phenyl)-2-[4-(1,3-dihydroxy-1-methyl-propyl)-phenyl]-7-isopropoxy-6-methoxy-1,4-dihydro-2H-isoquinolin-3-one] | 0.247 µM | –
COc1ccc(C(O)(CO)c2ccc(N3C(=O)Cc4cc(OC)c(OC(C)C)cc4[C@@H]3c3ccc(Cl)cc3)cc2)cc1 (stereo partly drawn) [Example 44, (S)-1-(4-Chloro-phenyl)-2-{4-[1,2-dihydroxy-1-(4-methoxy-phenyl)-ethyl]-phenyl}-7-isopropoxy-6-methoxy-1,4-dihydro-2H-isoquinolin-3-one] | 0.0982 µM | –

Other lines, results leading:

IC50 [1] | IC50 [2] | Compound
0.00815 µM | 7.61 µM | COc1cc2c(cc1OC(C)C)[C@H](c1ccc(Cl)cc1)N(c1ccc(C(C)(O)C34CCC(CC3)O4)cc1)C(=O)C2 (mixture of isomers) [Example 135, (S)-1-(4-Chloro-phenyl)-2-{4-[1-hydroxy-1-(7-oxa-bicyclo[2.2.1]hept-1-yl)-ethyl]-phenyl}-7-isopropoxy-6-methoxy-1,4-dihydro-2H-isoquinolin-3-one]
0.0079 µM | 8.05 µM | COc1cc2c(cc1OC(C)C)[C@H](c1ccc(Cl)cc1)N(c1ccc(C(C)(O)C3CC4CCC(C3)S4(=O)=O)cc1)C(=O)C2 (mixture of isomers) [Example 172, (S)-1-(4-Chloro-phenyl)-2-{4-[1-(8,8-dioxo-8-thia-bicyclo[3.2.1]oct-3-yl)-1-hydroxy-ethyl]-phenyl}-7-isopropoxy-6-methoxy-1,4-dihydro-2H-isoquinolin-3-one]
0.422 µM | – | COc1cc2c(cc1OC(C)C)[C@H](c1ccc(Cl)cc1)N(c1ccc([C@](C)(O)C3CCC(F)(F)CC3)cc1)C(=O)C2 (single isomer, unassigned) [Example 46]
2.31 µM | – | COc1cc2c(cc1OC(C)C)[C@H](c1ccc(Cl)cc1)N(c1ccc([C@](C)(O)C34CC5CC(CC(C5)C3)C4)cc1)C(=O)C2 (single isomer, unassigned) [Example 143]
0.811 µM | – | COc1cc2c(cc1OC(C)C)[C@H](c1ccc(Cl)cc1)N(c1ccc(C3(O)CNC3)cc1)C(=O)C2 [Example 56, (S)-1-(4-Chloro-phenyl)-2-[4-(3-hydroxy-azetidin-3-yl)-phenyl]-7-isopropoxy-6-methoxy-1,4-dihydro-2H-isoquinolin-3-one]
0.262 µM | – | COc1cc2c(cc1OC(C)C)[C@H](c1ccc(Cl)cc1)N(c1ccc(C3(O)CN(C(C)=O)C3)cc1)C(=O)C2 [Example 57, (S)-2-[4-(1-Acetyl-3-hydroxy-azetidin-3-yl)-phenyl]-1-(4-chloro-phenyl)-7-isopropoxy-6-methoxy-1,4-dihydro-2H-isoquinolin-3-one]
0.205 µM | – | COC(=O)N1CC(O)(c2ccc(N3C(=O)Cc4cc(OC)c(OC(C)C)cc4[C@@H]3c3ccc(Cl)cc3)cc2)C1 [Example 58, 3-{4-[(S)-1-(4-Chloro-phenyl)-7-isopropoxy-6-methoxy-3-oxo-3,4-dihydro-1H-isoquinolin-2-yl]-phenyl}-3-hydroxy-azetidine-1-carboxylic acid methyl ester]
0.167 µM | – | COc1cc2c(cc1OC(C)C)[C@H](c1ccc(Cl)cc1)N(c1ccc(C3(O)CN(C(=O)N(C)C)C3)cc1)C(=O)C2 [Example 59, 3-{4-[(S)-1-(4-Chloro-phenyl)-7-isopropoxy-6-methoxy-3-oxo-3,4-dihydro-1H-isoquinolin-2-yl]-phenyl}-3-hydroxy-azetidine-1-carboxylic acid dimethylamide]
0.156 µM | – | COc1cc2c(cc1OC(C)C)[C@H](c1ccc(Cl)cc1)N(c1ccc(C3(O)CN(C(=O)C4CC4)C3)cc1)C(=O)C2 [Example 61, (S)-1-(4-Chloro-phenyl)-2-[4-(1-cyclopropanecarbonyl-3-hydroxy-azetidin-3-yl)-phenyl]-7-isopropoxy-6-methoxy-1,4-dihydro-2H-isoquinolin-3-one]
0.0251 µM | – | COc1cc2c(cc1OC(C)C)[C@H](c1ccc(Cl)cc1)N(c1ccc(C(C)(O)C34CC5CC(CC(C5)C3)C4)cc1)C(=O)C2 (stereo partly drawn) [Example 141, (S)-2-[4-(1-Adamantan-1-yl-1-hydroxy-ethyl)-phenyl]-1-(4-chloro-phenyl)-7-isopropoxy-6-methoxy-1,4-dihydro-2H-isoquinolin-3-one]
0.123 µM | – | COc1cc2c(cc1OC(C)C)[C@H](c1ccc(Cl)cc1)N(c1ccc(C(C)(O)C3C4CC5CC(C4)CC3C5)cc1)C(=O)C2 (stereo partly drawn) [Example 144, (S)-2-[4-(1-Adamantan-2-yl-1-hydroxy-ethyl)-phenyl]-1-(4-chloro-phenyl)-7-isopropoxy-6-methoxy-1,4-dihydro-2H-isoquinolin-3-one]
